Source: patent publication EP4786487A1, “PEPTIDE” (Peptidream Inc, priority 2023, dated 2025)
Read-outs that look alike come from different tables or passages of the source. Starred links: 1 amine or outer side, 2 acyl side, 3 side chain; linkers in the order of their positions; H or OH if unused. Positions of bridges follow the written chain, without caps; N, C: chain ends. Non-standard residues stand in square brackets, D forms with d. Residues, ends and D or L forms follow the SMILES beside them. *: point of attachment. X13 = O=C(O)c1ccc(-n2cc(C[C@H](N[*:1])C(=O)[*:2])c3ccccc32)cc1; X6 = CS(=O)(=O)c1ccc(-c2ccc(C[C@H](N[*:1])C(=O)[*:2])cc2)cc1; Phe(3-OCH2COOH) = N[C@@H](Cc1cccc(OCC(=O)O)c1)C(=O)O; Piperidine(4-CH2CH2CONH2) = NC(=O)CCC1CCN(*)CC1; Trp(6-OH) = N[C@@H](Cc1c[nH]c2cc(O)ccc12)C(=O)O; Phe(4-COOH) = N[C@@H](Cc1ccc(C(=O)O)cc1)C(=O)O; Trp(6-aza) = N[C@@H](Cc1c[nH]c2cnccc12)C(=O)O; Piperazinyl(4-CH2COOH) = O=C(O)CN1CCN(*)CC1; Piperidinyl(4-CH2COOH) = O=C(O)CC1CCN(*)CC1; Gly(decyl) = CCCCCCCCCC[C@H](N)C(=O)O; Gly(N(CH2)3COOH) = O=C(O)CCCNCC(=O)O; X1 = CCCCCCC[C@H](N[*:1])C(=O)[*:2]; NMeF = CN[C@@H](Cc1ccccc1)C(=O)O; NMeE = CN[C@@H](CCC(=O)O)C(=O)O; NMeA = CN[C@@H](C)C(=O)O; NEtG = CCNCC(=O)O; Sar = CNCC(=O)O

Legend:
Type in all cases: cell-based
Myostatin [1] = biological target: T1, Myostatin (Homo sapiens, UniProt O14793); experiment: Reporter gene assay for myostatin signaling in HepG2 cell line, Evaluation Procedure (1), myostatin inhibition; details: read-out: IC50 (Luciferase) Myostatin HepG2
T1 construct: active myostatin (also called mature myostatin) is a homodimer consisting of two C-terminal growth factor domains; purchased R&D systems 788-G8/CF
T1 sequence (O14793 267-375): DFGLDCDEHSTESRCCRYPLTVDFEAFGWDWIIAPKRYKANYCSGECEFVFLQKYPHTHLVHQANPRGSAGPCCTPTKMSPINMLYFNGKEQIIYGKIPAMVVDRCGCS
Procedure, shortened: (§1)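 HepG2 cells transfected with pGL3(CAGA)12-luciferase reporter, serum-starved in 0.1% BSA medium, then stimulated with myostatin or GDF-11 plus 4-fold peptide dilutions (0.006–100 nmol/L for myostatin, 0.12–2000 nmol/L for GDF-11) for 20–24 h at 37 °C. Luminescence read with One-Glo; IC50 calculated.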

Myostatin [2] = experiment: as above; details: GDF-11 IC50 versus Myostatin IC50
Procedure, shortened: as §1

GDF-11 = biological target: T2, GDF-11 (Homo sapiens, UniProt O95390); experiment: Reporter gene assay for myostatin signaling in HepG2 cell line, Evaluation Procedure (1), GDF-11 inhibition; details: read-out: IC50 (Luciferase) GDF-11 HepG2
T2 construct: purchased R&D systems 1958-GD-G8/CF
T2 sequence (O95390 299-407): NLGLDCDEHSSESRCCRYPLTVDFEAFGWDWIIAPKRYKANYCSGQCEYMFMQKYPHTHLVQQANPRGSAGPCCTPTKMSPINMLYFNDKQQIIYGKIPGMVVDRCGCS
Procedure, shortened: as §1

SMILES	IC50 (Myostatin [1]; Method B: Myostatin 1 ng/mL) [nM]	IC50 (GDF-11; Method B: GDF-11 1 ng/mL) [nM]	IC50 (Myostatin [1]; Method C: Myostatin 1.5 ng/mL) [nM]	IC50 (GDF-11; Method C: GDF-11 1 ng/mL) [nM]	IC50 (Myostatin [1]; Method D: Myostatin 1.5 ng/mL) [nM]	IC50 (GDF-11; Method D: GDF-11 1.5 ng/mL) [nM]	Selectivity (Myostatin [2]; Method B)	Selectivity (Myostatin [2]; Method C)	Selectivity (Myostatin [2]; Method D)
CCCCCCCCCC[C@@H]1NC(=O)[C@H](Cc2ccccc2)N(C)C(=O)[C@H](CCCNC(=N)N)NC(=O)[C@H](Cc2ccc(C(=O)O)cc2)NC(=O)[C@H](Cc2cccc(OCC(=O)O)c2)NC(=O)CN(C)C(=O)[C@H]([C@@H](C)OC)NC(=O)[C@H](Cc2ccccc2)N(C)C(=O)[C@H](Cc2ccc(O)cc2)NC(=O)[C@H](Cc2c[nH]c3cnccc23)NC(=O)[C@H](C)NC(=O)[C@H](C)NC(=O)CSC[C@H](C(=O)N2CCC(CC(=O)O)CC2)NC(=O)[C@H](Cc2ccccc2)N(C)C(=O)[C@H](CCC(=O)O)N(C)C1=O [Myostatin_99_v341] ({CH2CO}-AA[Trp(6-aza)]Y[NMeF]T(Me)[Sar][Phe(3-OCH2COOH)][Phe(4-COOH)]R[NMeF][Gly(decyl)][NMeE][NMeF][dC]-{Piperidinyl(4-CH2COOH)}; thioether N-15)	0.76	132					173.9		
CCCCCCCCCC[C@@H]1NC(=O)[C@H](Cc2ccccc2)N(C)C(=O)[C@H](CCCNC(=N)N)NC(=O)[C@H](Cc2ccc(C(=O)O)cc2)NC(=O)[C@H](Cc2cccc(OCC(=O)O)c2)NC(=O)[C@H]2CCCN2C(=O)[C@H]([C@@H](C)CC)NC(=O)[C@H](Cc2ccccc2)N(C)C(=O)[C@H](Cc2ccc(O)cc2)NC(=O)[C@H](Cc2ccc(-c3ccc(S(C)(=O)=O)cc3)cc2)NC(=O)[C@H](C)NC(=O)[C@H](C)NC(=O)CSC[C@H](C(=O)N2CCN(CC(=O)O)CC2)NC(=O)[C@H](Cc2ccccc2)N(C)C(=O)[C@H](CCC(=O)O)N(C)C1=O [Myostatin_99_v343] ({CH2CO}-AA[X6]Y[NMeF]I[dP][Phe(3-OCH2COOH)][Phe(4-COOH)]R[NMeF][Gly(decyl)][NMeE][NMeF][dC]-{Piperazinyl(4-CH2COOH)}; thioether N-15)			0.1	14.3				137.1	
CCCCCCCCCC[C@@H]1NC(=O)[C@H](Cc2ccccc2)N(C)C(=O)[C@H](CCCNC(=N)N)NC(=O)[C@H](Cc2ccc(C(=O)O)cc2)NC(=O)[C@H](Cc2cccc(OCC(=O)O)c2)NC(=O)[C@H]2CCCN2C(=O)[C@H]([C@@H](C)CC)NC(=O)[C@H](Cc2ccccc2)N(C)C(=O)[C@H](Cc2ccc(O)cc2)NC(=O)[C@H](Cc2c[nH]c3ccccc23)NC(=O)[C@H](C)NC(=O)[C@H](C)NC(=O)CSC[C@H](C(=O)N2CCC(CCC(N)=O)CC2)NC(=O)[C@H](Cc2ccccc2)N(C)C(=O)[C@H](CCC(=O)O)N(C)C1=O [Myostatin_99_v344] ({CH2CO}-AAWY[NMeF]I[dP][Phe(3-OCH2COOH)][Phe(4-COOH)]R[NMeF][Gly(decyl)][NMeE][NMeF][dC]-{Piperidine(4-CH2CH2CONH2)}; thioether N-15)			0.08	62.3				812.6	
CCCCCCCCCC[C@@H]1NC(=O)[C@H](Cc2ccccc2)N(C)C(=O)[C@H](CCCNC(=N)N)NC(=O)[C@H](Cc2ccc(C(=O)O)cc2)NC(=O)[C@H](Cc2cccc(OCC(=O)O)c2)NC(=O)CN(C)C(=O)[C@H]([C@@H](C)CC)NC(=O)[C@H](Cc2ccccc2)N(C)C(=O)[C@H](Cc2ccc(O)cc2)NC(=O)[C@H](Cc2c[nH]c3ccccc23)NC(=O)[C@H](C)NC(=O)[C@H](C)NC(=O)CSC[C@H](C(=O)N2CCC(CCC(N)=O)CC2)NC(=O)[C@H](Cc2ccccc2)N(C)C(=O)[C@H](CCC(=O)O)N(C)C1=O [Myostatin_99_v346] ({CH2CO}-AAWY[NMeF]I[Sar][Phe(3-OCH2COOH)][Phe(4-COOH)]R[NMeF][Gly(decyl)][NMeE][NMeF][dC]-{Piperidine(4-CH2CH2CONH2)}; thioether N-15)			0.09	10.5				116.0	
CCCCCCC[C@@H]1NC(=O)[C@H](Cc2ccccc2)N(C)C(=O)[C@H](CCCNC(=N)N)NC(=O)[C@H](Cc2ccc(C(=O)O)cc2)NC(=O)[C@H](Cc2cccc(OCC(=O)O)c2)NC(=O)[C@H](C)N(C)C(=O)[C@H]([C@@H](C)CC)NC(=O)[C@H](Cc2ccccc2)N(C)C(=O)[C@H](Cc2ccc(O)cc2)NC(=O)[C@H](Cc2cn(-c3ccc(C(=O)O)cc3)c3ccccc23)NC(=O)[C@H](C)NC(=O)CN(CCCC(=O)O)C(=O)CSC[C@H](C(=O)O)NC(=O)[C@H](Cc2ccccc2)N(C)C(=O)[C@H](C)N(C)C1=O [Myostatin_99_v372] ({CH2CO}-[Gly(N(CH2)3COOH)]A[X13]Y[NMeF]I[NMeA][Phe(3-OCH2COOH)][Phe(4-COOH)]R[NMeF][X1][NMeA][NMeF][dC]-OH; thioether N-15)					0.09	7.08			76.611
CCCCCCCCCC[C@@H]1NC(=O)[C@H](Cc2ccccc2)N(C)C(=O)[C@H](CCCNC(=N)N)NC(=O)[C@H](Cc2ccc(C(=O)O)cc2)NC(=O)[C@H](Cc2cccc(OCC(=O)O)c2)NC(=O)CN(CC)C(=O)[C@H]([C@@H](C)CC)NC(=O)[C@H](Cc2ccccc2)N(C)C(=O)[C@H](Cc2ccc(O)cc2)NC(=O)[C@H](Cc2c[nH]c3cc(O)ccc23)NC(=O)[C@H](C)NC(=O)[C@H](C)NC(=O)CSC[C@H](C(=O)N2CCC(CCC(N)=O)CC2)NC(=O)[C@H](Cc2ccccc2)N(C)C(=O)[C@H](CCC(=O)O)N(C)C1=O [Myostatin_99_v383] ({CH2CO}-AA[Trp(6-OH)]Y[NMeF]I[NEtG][Phe(3-OCH2COOH)][Phe(4-COOH)]R[NMeF][Gly(decyl)][NMeE][NMeF][dC]-{Piperidine(4-CH2CH2CONH2)}; thioether N-15)					0.18	40.5			220.797

Continued, in another order:

IC50 (Myostatin [1]; Method B: Myostatin 1 ng/mL) [nM]	IC50 (GDF-11; Method B: GDF-11 1 ng/mL) [nM]	IC50 (Myostatin [1]; Method C: Myostatin 1.5 ng/mL) [nM]	IC50 (GDF-11; Method C: GDF-11 1 ng/mL) [nM]	IC50 (Myostatin [1]; Method D: Myostatin 1.5 ng/mL) [nM]	IC50 (GDF-11; Method D: GDF-11 1.5 ng/mL) [nM]	SMILES	Selectivity (Myostatin [2]; Method B)	Selectivity (Myostatin [2]; Method C)	Selectivity (Myostatin [2]; Method D)
0.32	46.6					CCCCCCCCCC[C@@H]1NC(=O)[C@H](Cc2ccccc2)N(C)C(=O)[C@H](CCCNC(=N)N)NC(=O)[C@H](Cc2ccc(C(=O)O)cc2)NC(=O)[C@H](Cc2cccc(OCC(=O)O)c2)NC(=O)[C@H]2CCCN2C(=O)[C@H]([C@@H](C)CC)NC(=O)[C@H](Cc2ccccc2)N(C)C(=O)[C@H](Cc2ccc(O)cc2)NC(=O)[C@H](Cc2c[nH]c3ccccc23)NC(=O)[C@H](C)NC(=O)[C@H](C)NC(=O)CSC[C@H](C(=O)N2CCC(CC(=O)O)CC2)NC(=O)[C@H](Cc2ccccc2)N(C)C(=O)[C@H](CCC(=O)O)N(C)C1=O [Myostatin_99_v335] ({CH2CO}-AAWY[NMeF]I[dP][Phe(3-OCH2COOH)][Phe(4-COOH)]R[NMeF][Gly(decyl)][NMeE][NMeF][dC]-{Piperidinyl(4-CH2COOH)}; thioether N-15)	145.0		
0.38	114					CCCCCCCCCC[C@@H]1NC(=O)[C@H](Cc2ccccc2)N(C)C(=O)[C@H](CCCNC(=N)N)NC(=O)[C@H](Cc2ccc(C(=O)O)cc2)NC(=O)[C@H](Cc2cccc(OCC(=O)O)c2)NC(=O)[C@H]2CCCN2C(=O)[C@H]([C@@H](C)CC)NC(=O)[C@H](Cc2ccccc2)N(C)C(=O)[C@H](Cc2ccc(O)cc2)NC(=O)[C@H](Cc2c[nH]c3cnccc23)NC(=O)[C@H](C)NC(=O)[C@H](C)NC(=O)CSC[C@H](C(=O)N2CCC(CC(=O)O)CC2)NC(=O)[C@H](Cc2ccccc2)N(C)C(=O)[C@H](CCC(=O)O)N(C)C1=O [Myostatin_99_v338] ({CH2CO}-AA[Trp(6-aza)]Y[NMeF]I[dP][Phe(3-OCH2COOH)][Phe(4-COOH)]R[NMeF][Gly(decyl)][NMeE][NMeF][dC]-{Piperidinyl(4-CH2COOH)}; thioether N-15)	299.8		
0.89	128					CCCCCCCCCC[C@@H]1NC(=O)[C@H](Cc2ccccc2)N(C)C(=O)[C@H](CCCNC(=N)N)NC(=O)[C@H](Cc2ccc(C(=O)O)cc2)NC(=O)[C@H](Cc2cccc(OCC(=O)O)c2)NC(=O)CN(CC)C(=O)[C@H]([C@@H](C)CC)NC(=O)[C@H](Cc2ccccc2)N(C)C(=O)[C@H](Cc2ccc(O)cc2)NC(=O)[C@H](Cc2c[nH]c3cnccc23)NC(=O)[C@H](C)NC(=O)[C@H](C)NC(=O)CSC[C@H](C(=O)N2CCC(CC(=O)O)CC2)NC(=O)[C@H](Cc2ccccc2)N(C)C(=O)[C@H](CCC(=O)O)N(C)C1=O [Myostatin_99_v339] ({CH2CO}-AA[Trp(6-aza)]Y[NMeF]I[NEtG][Phe(3-OCH2COOH)][Phe(4-COOH)]R[NMeF][Gly(decyl)][NMeE][NMeF][dC]-{Piperidinyl(4-CH2COOH)}; thioether N-15)	144.7		
				0.04	29.6	CCCCCCCCCC[C@@H]1NC(=O)[C@H](Cc2ccccc2)N(C)C(=O)[C@H](CCCNC(=N)N)NC(=O)[C@H](Cc2ccc(C(=O)O)cc2)NC(=O)[C@H](Cc2cccc(OCC(=O)O)c2)NC(=O)[C@H]2CCCN2C(=O)[C@H]([C@@H](C)CC)NC(=O)[C@H](Cc2ccccc2)N(C)C(=O)[C@H](Cc2ccc(O)cc2)NC(=O)[C@H](Cc2c[nH]c3cc(O)ccc23)NC(=O)[C@H](C)NC(=O)[C@H](C)NC(=O)CSC[C@H](C(=O)N2CCC(CCC(N)=O)CC2)NC(=O)[C@H](Cc2ccccc2)N(C)C(=O)[C@H](CCC(=O)O)N(C)C1=O [Myostatin_99_v382] ({CH2CO}-AA[Trp(6-OH)]Y[NMeF]I[dP][Phe(3-OCH2COOH)][Phe(4-COOH)]R[NMeF][Gly(decyl)][NMeE][NMeF][dC]-{Piperidine(4-CH2CH2CONH2)}; thioether N-15)			711.775
